The text below walks through data of PubChem BioAssay (NCI).

Test systems include CAKI-1 renal; U251 CNS; RXF 393 renal; COLO 205 colon; A549 NSCLC; KM12 colon; IGROV1 ovarian; 786-0 renal; SF-268 CNS; MOLT-4 leukemia; OVCAR-8 ovarian.
Assay in all cases: DTP human tumour cell line panel, 48 h

Where “and” joins values, the source holds several entries; their conditions need not be identical. Equal entries are not always repeated.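 Each compound was tested at five concentrations against cells in 96-well plates for 48 hours. GI50 = concentration required for 50% inhibition of growth. TGI denotes the concentration required for complete inhibition of growth.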

For orientation: TGI means the concentration giving total growth inhibition. A lower TGI goes with more potent growth arrest. Regarding `Cc1c(S(=O)(=O)/N=C(\NO)Nc2ccc(Cl)c(Cl)c2)sc2ccc(Cl)cc12`, the TGI with CAKI-1 renal was 38.2 µM; in the experiment with U251 CNS, 49.9 µM; in the experiment on RXF 393 renal, 34 µM; in the experiment on COLO 205 colon, 35.7 µM; with A549 NSCLC it was 68.8 µM; with KM12 colon it was 38.6 µM. The total growth inhibition concentration (TGI) with IGROV1 ovarian was 34.5 µM; in the experiment with 786-0 renal, 39.6 µM; in the experiment on SF-268 CNS it was 58.8 µM; in the experiment on MOLT-4 leukemia, over 100 µM; in the experiment on OVCAR-8 ovarian, 46.6 µM.
`CCOC(=O)C(=Cc1[nH]c2ccccc2c1-c1c[nH]c2ccccc12)C(=O)OCC`: the total growth inhibition concentration (TGI) in the experiment on CAKI-1 renal worked out at 30.8 µM; in the experiment on U251 CNS it was 24.3 µM; in the experiment with RXF 393 renal, 23.3 µM; with COLO 205 colon, 40.8 µM; in the experiment on A549 NSCLC, 35.9 µM; in the experiment with KM12 colon, 18 µM. Moreover, the TGI in the experiment with IGROV1 ovarian was 24.8 µM; in the experiment on 786-0 renal it was 7.15 µM; with SF-268 CNS, 30.5 µM; in the experiment with MOLT-4 leukemia, over 100 µM; with OVCAR-8 ovarian, 25.8 µM.
Regarding `Cn1cc(NC(=O)c2cc(NC(=O)CN=C(N)N)cn2C)cc1C(=O)NCCC(=N)N`, the TGI in the experiment with CAKI-1 renal, in the experiment on U251 CNS, with RXF 393 renal, in the experiment with COLO 205 colon, in the experiment with A549 NSCLC and in the experiment with KM12 colon was over 100 µM throughout. Besides, the TGI in the experiment with IGROV1 ovarian, in the experiment with 786-0 renal, with SF-268 CNS, with MOLT-4 leukemia and with OVCAR-8 ovarian was over 100 µM in each case.
On to `COCN(CCC1=CCCCC1)C(=O)OC`, for which the TGI in the experiment with CAKI-1 renal, in the experiment on U251 CNS, with RXF 393 renal, with COLO 205 colon, in the experiment with A549 NSCLC and in the experiment on KM12 colon was over 100 µM in each case. Besides, the TGI with IGROV1 ovarian, in the experiment with 786-0 renal, with SF-268 CNS, in the experiment with MOLT-4 leukemia and in the experiment with OVCAR-8 ovarian was over 100 µM throughout.
Consider `CC1=NNC(N)=N/C1=C\C(Sc1ccc(Cl)cc1)c1ccc([N+](=O)[O-])cc1` (configuration not stated), for which the TGI in the experiment with CAKI-1 renal, in the experiment with U251 CNS, with RXF 393 renal, in the experiment with COLO 205 colon, in the experiment on A549 NSCLC and in the experiment on KM12 colon was over 100 µM throughout. Besides, the TGI with IGROV1 ovarian, in the experiment on 786-0 renal, in the experiment on SF-268 CNS, with MOLT-4 leukemia and in the experiment with OVCAR-8 ovarian was over 100 µM each time.
As to `O=C1C(CN2CCCCC2)CCC1CN1CCCCC1` (configuration not stated), the TGI is 25 µM with CAKI-1 renal; over 73.2 µM in the experiment on U251 CNS; 28.3 µM in the experiment with RXF 393 renal; 40.7 µM in the experiment on COLO 205 colon; over 100 µM in the experiment on A549 NSCLC; over 69.7 µM in the experiment on KM12 colon. The TGI is 49.7 µM in the experiment with IGROV1 ovarian; 41.7 µM in the experiment on 786-0 renal; over 74.8 µM with SF-268 CNS; 3.79 µM in the experiment on MOLT-4 leukemia; over 68.9 µM with OVCAR-8 ovarian.
Regarding `CCN(CC)CCNc1nc2ccc([N+](=O)[O-])cc2[n+]([O-])n1`, the TGI in the experiment on CAKI-1 renal is over 100 µM; in the experiment with U251 CNS, 77.2 µM; with RXF 393 renal, over 100 µM; in the experiment with COLO 205 colon it was 18.6 µM; in the experiment on A549 NSCLC, 61 µM; with KM12 colon, over 100 µM. The TGI is 38.3 µM with IGROV1 ovarian; over 100 µM in the experiment with 786-0 renal; over 100 µM with SF-268 CNS; 50.6 µM in the experiment with MOLT-4 leukemia; 43.1 µM in the experiment with OVCAR-8 ovarian.
As usually defined, the GI50 is the concentration that inhibits growth by half. Regarding `CSc1ccc2c(cc1=O)[C@@H](NC(=O)c1ccc(N)cc1)CCc1cc(O)c(O)c(O)c1-2`, the GI50 in the experiment on CAKI-1 renal is > 75 µM and 25.8 µM; with COLO 205 colon it was 31.7 µM and 4.04 µM; in the experiment with KM12 colon, 14.7 µM and 3.68 µM. Further, the TGI in the experiment on CAKI-1 renal was > 75 µM and 53.2 µM; in the experiment with U251 CNS it was 57.3 µM and > 100 µM; with RXF 393 renal, over 100 µM; in the experiment on COLO 205 colon it was over 100 µM; in the experiment on A549 NSCLC, 49.7 µM and 64.9 µM; in the experiment on KM12 colon, 33.2 µM and 17 µM. Further, the TGI is over 100 µM in the experiment on IGROV1 ovarian; 27.6 µM and 41.1 µM in the experiment on 786-0 renal; 47.8 µM and > 100 µM with SF-268 CNS; over 100 µM in the experiment on MOLT-4 leukemia; > 75 µM and 59.1 µM in the experiment with OVCAR-8 ovarian.
Consider `CC(=O)OCC12C(=O)C[C@@H](C)C3(CC(c4ccoc4)OC3=O)C1CCC(OC(C)=O)C21CO1` (some centres not stated), for which the TGI in the experiment with CAKI-1 renal, in the experiment with U251 CNS, in the experiment with RXF 393 renal, in the experiment on COLO 205 colon, with A549 NSCLC and in the experiment on KM12 colon was over 100 µM in each case. Moreover, the TGI in the experiment with IGROV1 ovarian, with 786-0 renal, in the experiment on SF-268 CNS, with MOLT-4 leukemia and in the experiment on OVCAR-8 ovarian was over 100 µM throughout.
In the case of `Nc1cc2[nH]c(=O)c(=O)[nH]c2cc1N`, the TGI in the experiment with CAKI-1 renal, in the experiment on U251 CNS, in the experiment on RXF 393 renal, in the experiment on COLO 205 colon, in the experiment on A549 NSCLC and with KM12 colon was over 100 µM each time. Besides, the TGI with IGROV1 ovarian, with 786-0 renal, with SF-268 CNS, in the experiment on MOLT-4 leukemia and with OVCAR-8 ovarian was over 100 µM each time.
Consider `CC(C)=CCC/C(C)=C/C=C/C(C)=C/C=C/C(C)=C/C=C/C=C(C)/C=C/C=C(C)/C=C/[C@H]1C(C(C)(C)O)CC[C@]1(C)O` (some centres not stated), for which the TGI was over 100 µM in the experiment with CAKI-1 renal; 47.4 µM in the experiment on U251 CNS; 45.4 µM in the experiment with RXF 393 renal; 70.6 µM in the experiment with KM12 colon; 49.5 µM with IGROV1 ovarian; 46.8 µM in the experiment on 786-0 renal. Also, the values for the TGI in the experiment with SF-268 CNS, in the experiment on MOLT-4 leukemia and in the experiment on OVCAR-8 ovarian were 42.4 µM, 54.9 µM and 52.2 µM, respectively.
On to `O=C(c1ccc(N=Cc2ccccc2O)cc1)c1ccc(N=Cc2ccccc2O)cc1`, for which the TGI with CAKI-1 renal, with U251 CNS, in the experiment on RXF 393 renal, in the experiment on COLO 205 colon, in the experiment on A549 NSCLC and in the experiment with KM12 colon was over 100 µM each time. Besides, the TGI in the experiment on IGROV1 ovarian, in the experiment with 786-0 renal, with SF-268 CNS and in the experiment with MOLT-4 leukemia was over 100 µM in each case.
